Here are results for 28 molecules from US20050014811A1, “Substituted benzimidazole compounds and their use for the treatment of cancer” (Aventis Pharma S.A., priority 2001, published 2005).

As usually defined, the inhibition is the change of the read-out against control, counted positive when it falls. Read a high inhibition as a response far below the control. Usually IC50 stands for the concentration at which inhibition is half-maximal. A low value points to higher potency.

Assay [1] has as its target CDK4/CyclinD1 (Homo sapiens, UniProt P11802). Briefly: CDK4/CyclinD1 Flashplate assay, 96-well format, biotinylated-Rb peptide substrate. The assay is classed as biochemical. Summed up: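 Biotinylated Rb peptide bound to streptavidin Flashplate; CDK4/CyclinD1 (70 ng/well) preincubated 30 min on ice with compound at 10, 3, 1, 0.3 and 0.1 μM final. Reaction with 1 μM cold ATP plus 33P-ATP for 45 min at RT; incorporated 33P counted, duplicates.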

The target in assay [2] is CDK2/CyclinE (Homo sapiens, UniProt P24941). The experiment in a line: CDK2/CyclinE Flashplate assay, 96-well format, biotinylated-Rb peptide substrate. The assay is classed as biochemical. Put shortly: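 Biotinylated Rb peptide was captured on streptavidin Flashplates, and CDK2/CyclinE (200 ng/well) was preincubated 30 min on ice with inhibitor at 10, 3, 1, 0.3 or 0.1 μM final. Reactions ran 45 min at RT with 1 μM ATP plus 1 μCi ^33P-ATP. After washing, incorporated ^33P was counted, in duplicate.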

Sequence of CDK4/CyclinD1 (P11802 whole entry, species assumed): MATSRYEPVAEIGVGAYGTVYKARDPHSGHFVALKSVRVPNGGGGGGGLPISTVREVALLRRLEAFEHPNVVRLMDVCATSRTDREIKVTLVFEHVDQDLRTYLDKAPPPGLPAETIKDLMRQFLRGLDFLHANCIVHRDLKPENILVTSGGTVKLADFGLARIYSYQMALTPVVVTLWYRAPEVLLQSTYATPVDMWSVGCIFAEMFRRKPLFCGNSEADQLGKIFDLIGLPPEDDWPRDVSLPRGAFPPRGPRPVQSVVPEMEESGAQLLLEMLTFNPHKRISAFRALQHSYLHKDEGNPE
Sequence of CDK4/CyclinD1 (P24385 whole entry partner, species assumed): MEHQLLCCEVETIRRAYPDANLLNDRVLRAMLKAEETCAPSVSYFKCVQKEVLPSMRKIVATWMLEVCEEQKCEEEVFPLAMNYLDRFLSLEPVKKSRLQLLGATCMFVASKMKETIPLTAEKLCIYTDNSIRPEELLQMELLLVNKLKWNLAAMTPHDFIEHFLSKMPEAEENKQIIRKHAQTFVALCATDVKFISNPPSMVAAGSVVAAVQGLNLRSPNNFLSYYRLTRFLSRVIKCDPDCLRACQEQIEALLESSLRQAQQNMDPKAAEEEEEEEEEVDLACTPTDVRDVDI

Molecule `CC(C)(C)NC(=O)Nc1nc2cc(OS(=O)(=O)c3ccc(NC4CCCC4)cc3)ccc2[nH]1` [Example 53, 4-Cyclopentylamino-benzenesulfonic acid 2-(3-tert-butyl-ureido)-1H-benzoimidazol-5-yl ester] displayed an inhibition at 10 µM in assay [1] of 83%. 0.8 µM corresponded to half-maximal inhibition in assay [2] (IC50).
With `O=C(Nc1nc2cc(OS(=O)(=O)c3ccc(-n4ccnc4)cc3)ccc2[nH]1)NC1CCCC1` [Example 57-c, 4-Imidazol-1-yl-benzenesulfonic acid 2-(3-cyclopentyl-ureido)-1H-benzoimidazol-5-yl ester], in assay [1], the inhibition at 10 µM worked out at 60%. For the same molecule, the IC50 in assay [2] was determined as 0.6 µM.
For the molecule `O=C(NCc1ccccn1)Nc1nc2cc(OS(=O)(=O)c3ccc(NCC4CCCO4)cc3)ccc2[nH]1` (centres unmarked) [Example 59-k, 4-[(Tetrahydro-furan-2-ylmethyl)-amino]-benzenesulfonic acid 2-(3-pyridin-2-ylmethyl-ureido)-1H-benzoimidazol-5-yl ester], the figures for the half-inhibitory concentration (IC50) in assay [1] and in assay [2] were 0.3 µM and 0.02 µM, respectively.
As for `O=C(NCCN1CCCCC1)Nc1nc2cc(OS(=O)(=O)c3ccc(NC4CCCC4)cc3)ccc2[nH]1` [Example 58-aj, 4-Cyclopentylamino-benzenesulfonic acid 2-[3-(2-piperidin-1-yl-ethyl)-ureido]-1H-benzoimidazol-5-yl ester], the 50% inhibitory concentration (IC50) in assay [1] stood at 0.38 µM; in assay [2], 0.37 µM.
The molecule `O=C(Nc1nc2cc(OS(=O)(=O)c3ccc(-n4ccnc4)cc3)ccc2[nH]1)N1CCC1` [Example 57-i, 4-Imidazol-1-yl-benzenesulfonic acid 2-[(azetidine-1-carbonyl)-amino]-1H-benzoimidazol-5-yl ester] had an inhibition at 10 µM in assay [1] of 27%. Further, the concentration for half-maximal inhibition (IC50) in assay [2] is 5.2 µM.
`COC(=O)[C@@H]1CCCN1C(=O)Nc1nc2cc(OS(=O)(=O)c3ccc(NC4CCCC4)cc3)ccc2[nH]1` [Example 58-r, 1-[5-(4-Cyclopentylamino-benzenesulfonyloxy)-1H-benzoimidazol-2S-yl-carbamoyl]-pyrrolidine-2-carboxylic acid methyl ester] came in with an inhibition at 10 µM in assay [1] of 80%. Besides, in assay [2], half-maximal inhibition (IC50) required 0.02 µM.
Consider `O=C(Nc1nc2cc(OS(=O)(=O)c3ccc(NCC4CCCO4)cc3)ccc2[nH]1)NC1CCC1` (centres unmarked) [Example 59-o, 4-[(Tetrahydro-furan-2-ylmethyl)-amino]-benzenesulfonic acid 2-(3-cyclobutyl-ureido)-1H-benzoimidazol-5-yl ester], for which the IC50 turned out to be 0.8 µM in assay [1] and 0.04 µM in assay [2].
In the case of `COC(=O)CCC(=O)Nc1nc2cc(OS(=O)(=O)c3ccc(NC4CCCC4)cc3)ccc2[nH]1` [Example 25, N-[5-(4-Cyclopentylamino-benzenesulfonyloxy)-1H-benzoimidazol-2-yl]-succinamic acid methyl ester], the half-maximal inhibitory concentration (IC50) in assay [1] is 0.13 µM; in assay [2], 0.08 µM.
With `CN(C)c1ccc(NC(=O)Nc2nc3cc(OS(=O)(=O)c4ccc(NC5CCCC5)cc4)ccc3[nH]2)cc1` [Example 49, 4-Cyclopentylamino-benzenesulfonic acid 2-[3-(4-dimethylamino-phenyl)-ureido]-1H-benzoimidazol-5-yl ester], the inhibition at 10 µM in assay [1] is 88%. This molecule also had an IC50 in assay [2] of 0.4 µM.
With `O=C(NCCOCCO)Nc1nc2cc(OS(=O)(=O)c3ccc(NC4CCCC4)cc3)ccc2[nH]1` [Example 58-af, 4-Cyclopentylamino-benzenesulfonic acid 2-{3-[2-(2-hydroxy-ethoxy)-ethyl]-ureido}-1H-benzoimidazol-5-yl ester], the half-maximal inhibitory concentration (IC50) came out at 0.21 µM in assay [1] and 0.18 µM in assay [2].
As for `O=C(NCCCN1CCCC1=O)Nc1nc2cc(OS(=O)(=O)c3ccc(NCC4CCCO4)cc3)ccc2[nH]1` (centres unmarked) [Example 59-p, 4-[(Tetrahydro-furan-2-ylmethyl)-amino]-benzenesulfonic acid 2-{3-[3-(2-oxo-pyrrolidin-1-yl)-propyl]-ureido}-1H-benzoimidazol-5-yl ester], the IC50 came out at 0.18 µM in assay [1] and 0.017 µM in assay [2].
`O=C(Nc1nc2cc(OS(=O)(=O)c3ccc(NC4CCCC4)cc3)ccc2[nH]1)C1CC1` [Example 27, 4-Cyclopentylamino-benzenesulfonic acid 2-(cyclopropanecarbonyl-amino)-1H-benzoimidazol-5-yl ester]: the figures for the 50% inhibitory concentration (IC50) in assay [1] and in assay [2] were 0.6 µM and 0.042 µM, respectively.
As for `O=C(NCc1ccccc1F)Nc1nc2cc(OS(=O)(=O)c3ccc(-n4ccnc4)cc3)ccc2[nH]1` [Example 57-h, 4-Imidazol-1-yl-benzenesulfonic acid 2-[3-(2-fluoro-benzyl)-ureido]-1H-benzoimidazol-5-yl ester], the IC50 in assay [1] was determined as 4.4 µM; in assay [2], 0.1 µM.
The matching figures for `CNc1ccc(S(=O)(=O)Oc2ccc3[nH]c(NC(=O)OC)nc3c2)cc1` [Example 14, Methyl-5-(4-methylaminophenylsulfonyloxy) benzimidazole-2-carbamate]: 0.3 µM and 0.2 µM.
Turning to `O=C(Nc1ccccc1)Nc1nc2cc(OS(=O)(=O)c3ccc(NC4CCCC4)cc3)ccc2[nH]1` [Example 58-a, 4-Cyclopentylamino-benzenesulfonic acid 2-(3-phenyl-ureido)-1H-benzoimidazol-5-yl ester], in assay [1], 10 µM produced 96% inhibition. Half-maximal inhibition in assay [2] (IC50) was put at 0.38 µM.
With `O=C(O)CNC(=O)Nc1nc2cc(OS(=O)(=O)c3ccc(NC4CCCC4)cc3)ccc2[nH]1` [Example 46, {3-[5-(4-Cyclopentylamino-benzenesulfonyloxy)-1H-benzoimidazol-2-yl]-ureido}-acetic acid], the half-inhibitory concentration (IC50) in assay [1] was found to be 0.012 µM; in assay [2], 0.06 µM.
Take `CCN(CC)CCNc1ccc(S(=O)(=O)Oc2ccc3[nH]c(NC(=O)OC)nc3c2)cc1` [Example 17, Methyl-5-(4-[2-diethylaminoethyl]aminophenyl-sulfonyloxy) benzimidazole-2-carbamate]: the results for the IC50 in assay [1] and in assay [2] were 6.3 µM and 2 µM, respectively.
In the case of `O=C(Nc1nc2cc(OS(=O)(=O)c3ccc(NC4CCCC4)cc3)ccc2[nH]1)N[C@H]1CC[C@H](O)CC1` [Example 58-x, 4-Cyclopentylamino-benzenesulfonic acid 2-[3-(4trans-hydroxy-cyclohexyl)-ureido]-1H-benzoimidazol-5-yl ester], the 50% inhibitory concentration (IC50) in assay [1] was found to be 0.31 µM; in assay [2], 0.04 µM.
The matching figures for `COc1cccc(NC(=O)Nc2nc3cc(OS(=O)(=O)c4ccc(NC5CCCC5)cc4)ccc3[nH]2)c1` [Example 38, 4-Cyclopentylamino-benzenesulfonic acid 2-[3-(3-methoxy-phenyl)-ureido]-1H-benzoimidazol-5-yl ester]: 1.25 µM and 4.3 µM.
Take `O=S(=O)(Oc1ccc2[nH]c(Nc3ccc(N4CCOCC4)cc3)nc2c1)c1ccc(NC2CCCC2)cc1` [Example 70-b, 4-Cyclopentylamino-benzenesulfonic acid 2-(4-morpholin-4-yl-phenylamino)-1H-benzoimidazol-5-yl ester]: the half-maximal inhibitory concentration (IC50) in assay [1] is 0.67 µM; in assay [2], 3 µM.
The matching figures for `COc1ccc(Nc2nc3cc(OS(=O)(=O)c4ccc(NC5CCCC5)cc4)ccc3[nH]2)cc1` [Example 70-d, 4-Cyclopentylamino-benzenesulfonic acid 2-(4-methoxy-phenylamino)-1H-benzoimidazol-5-yl ester]: 0.65 µM and 0.3 µM.
Regarding `COC(=O)Nc1nc2cc(OS(=O)(=O)c3ccc(N)cc3)ccc2[nH]1` [Example 16, Methyl-5-(4-aminophenylsulfonyloxy)benzimidazole-2-carbamate], the concentration for half-maximal inhibition (IC50) in assay [1] worked out at 0.37 µM; in assay [2], 1.8 µM.
The matching figures for `COCCCNc1ccc(S(=O)(=O)Oc2ccc3[nH]c(NC(=O)OC)nc3c2)cc1` [Example 13, Methyl-5-(4-[3-methoxypropyl]aminophenyl-sulfonyloxy) benzimidazole-2-carbamate]: 0.4 µM and 2 µM.
`O=C(NCc1ccccc1)Nc1nc2cc(OS(=O)(=O)c3ccc(-n4ccnc4)cc3)ccc2[nH]1` [Example 57-l, 4-Imidazol-1-yl-benzenesulfonic acid 2-(3-benzyl-ureido)-1H-benzoimidazol-5-yl ester]: the IC50 in assay [1] turned out to be 1 µM; in assay [2], 0.07 µM.
As to `O=C(Nc1nc2cc(OS(=O)(=O)c3ccc(NC4CCCC4)cc3)ccc2[nH]1)NC1CCCC1` [Example 58-c, 4-Cyclopentylamino-benzenesulfonic acid 2-(3-cyclopentyl-ureido)-1H-benzoimidazol-5-yl ester], in assay [1], 10 µM produced 60% inhibition. This molecule yielded a concentration for half-maximal inhibition (IC50) in assay [2] of 0.6 µM.
As for `O=C(Nc1nc2cc(OS(=O)(=O)c3ccc(NC4CCCC4)cc3)ccc2[nH]1)Nc1ccccc1F` [Example 37, 4-Cyclopentylamino-benzenesulfonic acid 2-[3-(2-fluoro-phenyl)-ureido]-1H-benzoimidazol-5-yl ester], the concentration for half-maximal inhibition (IC50) worked out at 0.57 µM in assay [1] and 0.45 µM in assay [2].
For the molecule `O=C(NCC1CCNCC1)Nc1nc2cc(OS(=O)(=O)c3ccc(NC4CCCC4)cc3)ccc2[nH]1` [Example 58-u, 4-Cyclopentylamino-benzenesulfonic acid 2-(3-piperidin-4-ylmethyl-ureido)-1H-benzoimidazol-5-yl ester], the IC50 is 0.29 µM in assay [1] and 0.01 µM in assay [2].
With `CN1CCN(CCCNC(=O)Nc2nc3cc(OS(=O)(=O)c4ccc(NC5CCCC5)cc4)ccc3[nH]2)CC1` [Example 58-k, 4-Cyclopentylamino-benzenesulfonic acid 2-{3-[3-(4-methyl-piperazin-1-yl)-propyl]-ureido}-1H-benzoimidazol-5-yl ester], the figures for the IC50 in assay [1] and in assay [2] were 0.5 µM and 0.04 µM, respectively.
